Laboratory results reported in ChEMBL document CHEMBL5614404, “Optimization of potent, broad-spectrum, and specific anti-influenza compounds targeting RNA polymerase PA-PB1 heterodimerization” (Eur J Med Chem, 2024).
≈ marks a conversion by molar mass, not a printed value. Calls of active or inactive are those of the source. The calls are words filed in the database; no cut-off is given here.

Legend:
Influenza A virus [1] = assay: Antiviral activity against Amantadine/Oseltamivir-sensitive Influenza A virus Solomon Islands/03/2006 (H1N1) infected in MDCK cells by plaque reduction assay; type: functional, organism-based
[2] = Inhibition of heterodimerization of C-terminal His-tagged Influenza virus PA (239 to 716 residues)/N-terminal GST-tagged Influenza virus PB1 (1 to 25 residues) incubated overnight by ELISA; parameters: species or system unidentified influenza virus
Influenza B virus [3] = assay: Antiviral activity against Influenza B virus Brisbane/60/2008 infected in MDCK cells by plaque reduction assay; type: functional, organism-based; details: Brisbane/60/2008, MDCK
[4] = Cytotoxicity against MDCK cells by Neutral red uptake assay; type: toxicity, cell-based, Canis lupus familiaris; details: dog
[5] = Cytotoxicity against MDCK cells incubated for 48 hrs by MTT assay; type: toxicity, cell-based, Canis lupus familiaris; details: dog
[6] = Inhibition of 6His-tagged Influenza virus PA (239 to 716 residues) extracted from Escherichia coli BL21(DE3)pLysS/GST-tagged Influenza virus PB1 (1 to 25 residues) by ELISA; parameters: species or system unidentified influenza virus
Influenza A virus [7] = assay: Antiviral activity against Influenza A virus PR/8/34 infected in MDCK cells incubated for 48 hrs by plaque reduction assay; type: functional, organism-based; details: Influenza A virus, PR/8/34, MDCK, 48 h
[8] = Selectivity index, ratio of CC50 for MDCK cells to EC50 for Influenza A virus PR/8/34 infected in MDCK cells; type: toxicity, cell-based; details: dog, read-out: Ratio CC50/EC50
HEK293T = assay: Inhibition of heterodimerization of Influenza virus GFP-fused PA/PB1 transfected in HEK293T cells assessed as impaired nuclear import at 0.5 uM incubated for 14 hrs by CLSM analysis; type: cell-based; details: unidentified influenza virus
[9] = Cytotoxicity against HEK293T cells incubated for 48 hrs by MTT assay; type: toxicity, cell-based, HEK-293T; details: human
[10] = tested on: unidentified influenza virus; assay: Thermal stabilization of C-terminal 6His-tagged Influenza virus PA (239 to 716 residues) extracted from Escherichia coli BL21(DE3)pLysS/N-terminal Influenza virus PB1 (1 to 25 residues) assessed as shift in melting temperature by nano-DSF assay
[11] = Binding affinity to RED-NT650-NHS-labeled C-terminal 6His-tagged recombinant Influenza virus PA (239 to 716 residues) extracted from Escherichia coli BL21(DE3)pLysS assessed as dissociation constant by MST assay; parameters: species or system unidentified influenza virus
Influenza A virus [12] = assay: Antiviral activity against Influenza A virus PR/8/34 (H1N1) infected in MDCK cells incubated for 48 hrs by plaque reduction assay; type: functional, organism-based
Influenza A virus [13] = assay: Antiviral activity against Influenza A virus Wisconsin/67/05 (H3N2) infected in MDCK cells incubated for 48 hrs by plaque reduction assay; type: functional, organism-based
Influenza B virus [14] = assay: Antiviral activity against ancestral Influenza B virus Lee/40 infected in MDCK cells incubated for 48 hrs by plaque reduction assay; type: functional, organism-based; details: Lee/40, MDCK
Influenza B virus [15] = assay: Antiviral activity against Influenza B virus Malaysia/2506/04 infected in MDCK cells incubated for 48 hrs by plaque reduction assay; type: functional, organism-based; details: Malaysia/2506/04, MDCK
Dengue virus = assay: Antiviral activity against DENV infected in human Huh-7 cells assessed as inhibition of viral replication; type: functional, organism-based
West Nile virus = assay: Antiviral activity against WNV infected in human Huh-7 cells assessed as inhibition of viral replication; type: functional, organism-based
SARS-CoV-2 = assay: Antiviral activity against SARS CoV-2 infected in human Caco-2 cells assessed as inhibition of viral replication; type: functional, organism-based; details: Severe acute respiratory syndrome coronavirus 2
A549 [16] = assay: (§1) Antiviral activity against HPIV infected in human A549 cells assessed as inhibition of viral replication; type: functional, cell-based
Huh-7 = assay: Cytotoxicity against human Huh-7 cells; type: toxicity, cell-based
Caco-2 = assay: Cytotoxicity against human Caco-2 cells; type: toxicity, cell-based
A549 [17] = assay: (§2) Cytotoxicity against human A549 cells; type: toxicity, cell-based; details: a549
[18] = Thermodynamic solubility in aqueous media incubated for 24 hrs by shake flask method; type: physicochemical; details: read-out: Therm_solubility
[19] = Apparent permeability of compound incubated for 5 hrs by PAMPA; type: ADME
[20] = Permeability of compound assessed as membrane retention incubated for 5 hrs by PAMPA; type: ADME
[21] = Metabolic stability in human liver microsomes assessed as unmetabolized compound at 50 uM incubated for 1 hr in presence of NADPH by UV/LC-MS analysis; type: ADME, Microsome; details: read-out: Stability
[22] = Metabolic stability in rat plasma at 2 mM measured for 5 to 60 mins by UV/LC-MS analysis; type: ADME, cell-free; details: time 5-60 min, read-out: Stability
[23] = Metabolic stability in rat plasma at 2 mM measured after 1440 mins by UV/LC-MS analysis; type: ADME, cell-free; details: read-out: Stability
[24] = Inhibition of heterodimerization of C-terminal His-tagged Influenza virus PA (239 to 716 residues)/N-terminal GST-tagged Influenza virus PB1 (1 to 25 residues) by ELISA; parameters: species or system unidentified influenza virus
Influenza A virus [25] = assay: Antiviral activity against Influenza A virus WSN/33 (H1N1) clinical isolate infected in MDCK cells expressing ST6Gal by crystal violet staining based plaque reduction assay; type: functional, organism-based
Influenza A virus [26] = assay: Antiviral activity against Oseltamivir-sensitive Influenza A virus Denmark/524/2009 (H1N1) clinical isolate infected in MDCK cells expressing ST6Gal by crystal violet staining based plaque reduction assay; type: functional, organism-based
Influenza A virus [27] = assay: Antiviral activity against Influenza A virus Switzerland/9715293/2013 (H3N2) clinical isolate infected in MDCK cells expressing ST6Gal by crystal violet staining based plaque reduction assay; type: functional, organism-based
Influenza A virus [28] = assay: Antiviral activity against Influenza A virus Texas/04/2009 (H1N1) clinical isolate infected in MDCK cells expressing ST6Gal by crystal violet staining based plaque reduction assay; type: functional, organism-based
Influenza A virus [29] = assay: Antiviral activity against Influenza A virus Washington/29/2009 (H1N1) clinical isolate infected in MDCK cells expressing ST6Gal by crystal violet staining based plaque reduction assay; type: functional, organism-based
Influenza B virus [30] = assay: Antiviral activity against Influenza B virus Wisconsin/1/2010 clinical isolate infected in MDCK cells expressing ST6Gal by crystal violet staining based plaque reduction assay; type: functional, organism-based; details: Wisconsin/1/2010, MDCK
Influenza B virus [31] = assay: Antiviral activity against Influenza B virus Memphis/20/1996 clinical isolate infected in MDCK cells expressing ST6Gal by crystal violet staining based plaque reduction assay; type: functional, organism-based; details: Memphis/20/1996, MDCK
Influenza B virus [32] = assay: Antiviral activity against Influenza B virus Utah/09/2014 clinical isolate infected in MDCK cells expressing ST6Gal by crystal violet staining based plaque reduction assay; type: functional, organism-based; details: Utah/09/2014, MDCK
Influenza B virus [33] = assay: Antiviral activity against Influenza B virus Phuket/3073/2013 clinical isolate infected in MDCK cells expressing ST6Gal by crystal violet staining based plaque reduction assay; type: functional, organism-based; details: Phuket/3073/2013, MDCK
Influenza B virus [34] = assay: Antiviral activity against Influenza B virus Brisbane/60/2008 clinical isolate infected in MDCK cells expressing ST6Gal by crystal violet staining based plaque reduction assay; type: functional, organism-based; details: Brisbane/60/2008, MDCK
[35] = Cytotoxicity against MDCK cells assessed as reduction in cell viability incubated for 48 hrs by Neutral red uptake assay; type: toxicity, cell-based, Canis lupus familiaris; details: dog
[36] = as §1; type: functional, cell-based
[37] = as §2; type: toxicity, cell-based; details: A549 cells
[38] = Metabolic stability in rat plasma at 2 mM measured upto 1440 mins by UV/LC-MS analysis; type: ADME, cell-free; details: read-out: Stability

| Compound | CC50 at 48 h [5] [nM] | IC50 [6] [nM] | EC50 (Influenza A virus [7]) [nM] | selectivity ratio [8] | inhibition (HEK293T) | CC50 at 48 h [9] [nM] | Activity [10] | EC50 (Influenza A virus [12]) [nM] | EC50 (Influenza A virus [13]) [nM] | EC50 (Influenza B virus [14]) [nM] | EC50 (Influenza B virus [15]) [nM] | Activity (Dengue virus) | Activity (West Nile virus) | Activity (SARS-CoV-2) | Activity (Huh-7) | Activity (Caco-2) | solubility thermodynamic at 24 h [18] [µM] | Papp at 5 h [19] [×10⁻⁶ cm/s] | Activity [20] [%] | remaining at 1 h, 50 µM [21] [%] | also measured |
| --- | --- | --- | --- | --- | --- | --- | --- | --- | --- | --- | --- | --- | --- | --- | --- | --- | --- | --- | --- | --- | --- |
| O=C1C(c2ncc([N+](=O)[O-])s2)CC[C@@H]2CCCC[C@@H]12 (some centres undefined) |  |  |  |  |  |  |  |  |  |  |  |  |  |  |  |  |  |  |  |  | EC50 (Influenza A virus [1]): 930 nM; IC50 [2]: 18500 nM; EC50 (Influenza B virus [3]): 930 nM; CC50 [4]: > 300000 nM |
| N#Cc1ccc(C(=O)Nc2sc3c(c2C(=O)Nc2ccccc2O)CCCCC3)cc1 | > 250000 | 19300 | 380 | > 667 | Active | > 50000 | Active | 380 | 220 | 300 | 350 | inactive | inactive | inactive | Non-Toxic | Non-Toxic | 17.6 (≈ 7.59 µg/mL) | 3.48 | 57 | 93.3 | Kd [11]: 5750 nM; Activity (A549 [16]): inactive; Activity (A549 [17]): Non-Toxic; remaining at 2000 µM [22]: 95%; remaining at 24 h, 2000 µM [23]: 81% |
| C[C@@H](c1ccccc1)n1nnnc1[C@H](c1ccsc1)N1CCC(n2c(=O)[nH]c3ccccc32)CC1 |  |  |  |  |  |  |  |  |  |  |  |  |  |  |  |  |  |  |  |  | IC50 [24]: 7600 nM; EC50 (Influenza A virus [25]): 600 nM; EC50 (Influenza A virus [26]): 600 nM; EC50 (Influenza A virus [27]): 600 nM; EC50 (Influenza A virus [28]): 600 nM; EC50 (Influenza A virus [29]): 600 nM; EC50 (Influenza B virus [30]): 600 nM; EC50 (Influenza B virus [31]): 600 nM; EC50 (Influenza B virus [32]): 600 nM; EC50 (Influenza B virus [33]): 600 nM; EC50 (Influenza B virus [34]): 600 nM; CC50 at 48 h [35]: > 300000 nM |
| O=C(Nc1sc2c(c1C(=O)Nc1ccccc1O)CCCCC2)c1ccc([N+](=O)[O-])cc1O | 224000 | 26500 | 89 | 2520 | Active | > 50000 | Active | 89 | 54 | 87 | 88 | inactive | inactive | inactive | Non-Toxic | Non-Toxic | 49.8 (≈ 23.3 µg/mL) | 0.78 | 2.5 | 93.8 | EC50 [36]: 21700 nM; CC50 [37]: > 40000 nM; remaining at 24 h, 2000 µM [38]: ~100% |
